The record followed here is patent publication US20100063047A1 (KALYPSYS, INC., priority 2008, published 2010).

Where only a bound is given, the exact number is not on record here.

Experiment [1] addresses T1, human H1 (Homo sapiens, UniProt P35367).
T1 construct: host or cells: CHO-K1, also expressing mitochondrion-targeted aequorin
Put plainly: In vitro histamine H1 receptor cell-based aequorin bioluminescence antagonist assay. The note with it: CHO-K1 cells expressing human H1 and aequorin; histamine at EC80; read-out: H1 Antagonist EC50. In a few lines: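 CHO-K1 cells stably expressing human H1 or H4 plus mitochondrial aequorin (H4 also with Gα16), loaded with 5 μM coelenterazine-h for 4 h at ~21 °C. Compounds preincubated 15 min at room temperature, then histamine at EC80 added.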

Experiment [2] addresses T2, human H4 (Homo sapiens, UniProt Q9H3N8).
T2 construct: host or cells: CHO-K1, also expressing mitochondrion-targeted aequorin and human Gα16
Nature of the experiment: In vitro histamine H4 receptor cell-based aequorin bioluminescence antagonist assay. The note with it: CHO-K1 cells expressing human H4, aequorin and Gα16; histamine at EC80. How it is done: In vitro Histamine Receptor Cell-Based Assays
The cell-based assays utilize an aequorin dependent bioluminescence signal. Doubly-transfected, stable CHO—K1 cell lines expressing human H1 or H4, mitochondrion-targeted aequorin, and (H4 only) human G protein Gα16 are obtained from Perkin-Elmer. Cells are maintained in F12 (Ham's) growth medium, containing 10% (vol./vol.) fetal bovine serum, penicillin (100 IU/mL), streptomycin (0.1 mg/mL), zeocin (0.25 mg/mL) and geneticin (0.40 mg/mL). Cell media components are from Invitrogen, Inc. One day prior to assay, the growth medium is replaced with the same, excluding zeocin and geneticin.
For assay preparation, growth medium is aspirated, and cells are rinsed with calcium-free, magnesium-free phosphate-buffered saline, followed by two to three minute incubation in Versene (Invitrogen, Inc.) at 37° C. Assay medium (DMEM:F12 [50:50], phenol-red free, containing 1 mg/mL protease-free bovine serum albumin) is added to collect the released cells, which are then centrifuged. The cell pellet is re-suspended in assay medium, centrifuged once more, and re-suspended in assay medium to a final density of 5×10^6 cells/mL. Coelenterazine-h dye (500 μM in ethanol) is added to a final concentration of 5 μM, and mixed immediately. The conical tube containing the cells is then wrapped with foil to protect the light-sensitive dye. The cells are incubated for four hours further at room temperature (approximately 21° C.) with end-over-end rotation to keep them in suspension.
Just before assay, the dye-loaded cells are diluted to 0.75×10^6 cells/mL (H1 receptor) or 1.5×10^6 cells/mL (H4 receptor) with additional assay medium. Cells are dispensed to 1536 well micro-titer plates at 3 μL/well. To assay receptor antagonism, 60 nl of 100× concentration test compounds in 100% dimethyl sulfoxide (DMSO) are dispensed to the wells, one compound per well, by passive pin transfer, and the plates are incubated for 15 minutes at room temperature. […] The pipette dispenses 3 μL/well of agonist (histamine, at twice the final concentration, where final concentration is a previously determined EC80) in assay medium, with concurrent bioluminescence detection. Agonist activity of test compounds is excluded by separate assays that measure response to test compounds immediately, without added histamine agonist.
CCD image capture on the Lumilux includes a 5 second baseline read prior to agonist addition, and generally a 40 second read per plate after agonist addition. A decrease in bioluminescence signal (measured either as area-under-the-curve, or maximum signal amplitude minus minimum signal amplitude) correlates with receptor antagonism in a dose dependent manner. The negative control is DMSO lacking any test compound. For antagonist assays, the positive controls are diphenhydramine (2-Diphenylmethoxy-N,N-dimethylethylamine, 10 μM final concentration, H1 receptor) or JNJ7777120 (1-[(5-Chloro-1H-indol-2-yl)carbonyl]-4-methyl-piperazine, 10 μM final concentration, H4 receptor). Efficacy is measured as a percentage of positive control activity.

As usually defined, the EC50 is the concentration that produces a half-maximal response.

T1 sequence (P35367 whole entry): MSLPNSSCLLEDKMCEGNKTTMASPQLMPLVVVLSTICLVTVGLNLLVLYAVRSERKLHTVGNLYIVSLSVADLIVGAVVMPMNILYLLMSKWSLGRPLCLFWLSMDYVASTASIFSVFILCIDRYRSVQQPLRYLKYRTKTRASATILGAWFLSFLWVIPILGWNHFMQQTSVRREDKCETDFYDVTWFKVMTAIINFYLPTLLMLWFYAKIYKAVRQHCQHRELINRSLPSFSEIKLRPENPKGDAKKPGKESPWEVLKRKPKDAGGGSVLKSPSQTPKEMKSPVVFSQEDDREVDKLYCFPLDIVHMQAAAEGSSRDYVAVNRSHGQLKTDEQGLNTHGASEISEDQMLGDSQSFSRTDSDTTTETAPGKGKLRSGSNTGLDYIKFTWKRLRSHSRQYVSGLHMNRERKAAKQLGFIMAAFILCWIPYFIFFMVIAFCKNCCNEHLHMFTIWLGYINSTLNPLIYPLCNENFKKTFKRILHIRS
T2 sequence (Q9H3N8 whole entry): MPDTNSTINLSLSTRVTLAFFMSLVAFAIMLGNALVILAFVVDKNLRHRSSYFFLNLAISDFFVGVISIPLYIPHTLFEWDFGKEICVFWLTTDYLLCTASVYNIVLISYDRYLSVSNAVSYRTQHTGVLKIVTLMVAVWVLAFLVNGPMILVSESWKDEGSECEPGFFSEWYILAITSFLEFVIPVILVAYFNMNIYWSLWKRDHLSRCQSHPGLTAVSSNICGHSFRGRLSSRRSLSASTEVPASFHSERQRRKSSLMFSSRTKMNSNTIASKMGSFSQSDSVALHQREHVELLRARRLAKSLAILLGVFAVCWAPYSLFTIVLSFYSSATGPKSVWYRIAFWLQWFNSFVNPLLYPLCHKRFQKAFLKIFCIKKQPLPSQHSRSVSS

For `CCCN(C)c1ncnc2scc(C)c12` [Example 182, N,5-dimethyl-N-propylthieno[2,3-d]pyrimidin-4-amine], the EC50 in experiment [1] and in experiment [2] was greater than 10 µM each time.
`Cc1csc2ncnc(N(C)CCO)c12` [Example 183, 2-[methyl({5-methylthieno[2,3-d]pyrimidin-4-yl})amino]ethan-1-ol]: the EC50 in experiment [1] and in experiment [2] was greater than 10 µM each time.
For `Cc1csc2ncnc(N(C)CCC#N)c12` [Example 184, 3-[methyl({5-methylthieno[2,3-d]pyrimidin-4-yl})amino]propanenitrile], the concentration giving a half-maximal response (EC50) in experiment [1] and in experiment [2] was greater than 10 µM throughout.
Take `Cc1csc2ncnc(N(C)CC(C)C)c12` [Example 185, N,5-dimethyl-N-(2-methylpropyl)thieno[2,3-d]pyrimidin-4-amine]: the half-maximal effective concentration (EC50) in experiment [1] and in experiment [2] was greater than 10 µM throughout.
For the compound `CCN(c1ncnc2scc(C)c12)C(C)C` [Example 186, N-ethyl-5-methyl-N-(propan-2-yl)thieno[2,3-d]pyrimidin-4-amine], the EC50 in experiment [1] and in experiment [2] was greater than 10 µM each time.
Consider `CCN(CCO)c1ncnc2scc(C)c12` [Example 188, 2-[ethyl({5-methylthieno[2,3-d]pyrimidin-4-yl})amino]ethan-1-ol], for which the EC50 in experiment [1] and in experiment [2] was greater than 10 µM throughout.
Turning to `Cc1csc2ncnc(N3CCC(C)CC3)c12` [Example 191, 4-methyl-1-{5-methylthieno[2,3-d]pyrimidin-4-yl}piperidine], the EC50 in experiment [1] and in experiment [2] was greater than 10 µM in each case.
With `Cc1csc2ncnc(N3CCCC3CO)c12` (centres unmarked) [Example 193, (1-{5-methylthieno[2,3-d]pyrimidin-4-yl}pyrrolidin-2-yl)methanol], the EC50 in experiment [1] and in experiment [2] was greater than 10 µM throughout.
Take `Cc1csc2ncnc(N3CCC[C@@H]3CO)c12` [Example 194, [(2R)-1-{5-methylthieno[2,3-d]pyrimidin-4-yl}pyrrolidin-2-yl]methanol]: the EC50 in experiment [1] and in experiment [2] was greater than 10 µM in each case.
As for `CCCCN(CC)c1ncnc2scc(C)c12` [Example 195, N-butyl-N-ethyl-5-methylthieno[2,3-d]pyrimidin-4-amine], the EC50 in experiment [1] and in experiment [2] was greater than 10 µM in each case.
On to `CCCN(CCC)c1ncnc2scc(C)c12` [Example 196, 5-methyl-N,N-dipropylthieno[2,3-d]pyrimidin-4-amine], for which the concentration for a half-maximal effect (EC50) in experiment [1] and in experiment [2] was greater than 10 µM in each case.
For the compound `Cc1csc2ncnc(N3CCSCC3)c12` [Example 197, 4-{5-methylthieno[2,3-d]pyrimidin-4-yl}thiomorpholine], the EC50 in experiment [1] and in experiment [2] was greater than 10 µM each time.
Consider `Cc1csc2ncnc(N(CCO)CCO)c12` [Example 198, 2-[(2-hydroxyethyl)({5-methylthieno[2,3-d]pyrimidin-4-yl})amino]ethan-1-ol], for which the EC50 in experiment [1] and in experiment [2] was greater than 10 µM each time.
In the case of `Cc1csc2ncnc(N3CC(C)CC(C)C3)c12` (centres unmarked) [Example 199, 3,5-dimethyl-1-{5-methylthieno[2,3-d]pyrimidin-4-yl}piperidine], the EC50 in experiment [1] and in experiment [2] was greater than 10 µM in each case.
As to `Cc1csc2ncnc(N(C)C3CCCCC3)c12` [Example 200, N-cyclohexyl-N,5-dimethylthieno[2,3-d]pyrimidin-4-amine], the EC50 in experiment [1] and in experiment [2] was greater than 10 µM each time.
For `Cc1csc2ncnc(N3C(C)CCCC3C)c12` (centres unmarked) [Example 201, 2,6-dimethyl-1-{5-methylthieno[2,3-d]pyrimidin-4-yl}piperidine], the EC50 in experiment [1] and in experiment [2] was greater than 10 µM in each case.
As to `Cc1csc2ncnc(N3C[C@@H](C)N[C@@H](C)C3)c12` [Example 203, (3R,5S)-3,5-dimethyl-1-{5-methylthieno[2,3-d]pyrimidin-4-yl}piperazine], the concentration for a half-maximal effect (EC50) in experiment [1] and in experiment [2] was greater than 10 µM throughout.
Consider `Cc1csc2ncnc(N3CCCC(CO)C3)c12` (centres unmarked) [Example 204, (1-{5-methylthieno[2,3-d]pyrimidin-4-yl}piperidin-3-yl)methanol], for which the EC50 in experiment [1] and in experiment [2] was greater than 10 µM in each case.
`CCN(CCCCO)c1ncnc2scc(C)c12` [Example 207, 4-[ethyl({5-methylthieno[2,3-d]pyrimidin-4-yl})amino]butan-1-ol]: the half-maximal effective concentration (EC50) in experiment [1] and in experiment [2] was greater than 10 µM in each case.
Turning to `Cc1csc2ncnc(N3Cc4ccccc4C3)c12` [Example 208, 2-{5-methylthieno[2,3-d]pyrimidin-4-yl}-2,3-dihydro-1H-isoindole], the EC50 in experiment [1] and in experiment [2] was greater than 10 µM in each case.
For `Cc1csc2ncnc(N(C)Cc3ccccc3)c12` [Example 209, N-benzyl-N,5-dimethylthieno[2,3-d]pyrimidin-4-amine], the EC50 in experiment [1] and in experiment [2] was greater than 10 µM throughout.
With `CCN(c1ncnc2scc(C)c12)C1CCCCC1` [Example 210, N-cyclohexyl-N-ethyl-5-methylthieno[2,3-d]pyrimidin-4-amine], the EC50 in experiment [1] and in experiment [2] was greater than 10 µM throughout.
Turning to `Cc1csc2ncnc(N3CCC(C(N)=O)CC3)c12` [Example 211, 1-{5-methylthieno[2,3-d]pyrimidin-4-yl}piperidine-4-carboxamide], the EC50 in experiment [1] and in experiment [2] was greater than 10 µM in each case.
Turning to `CC(=O)N[C@H]1CCN(c2ncnc3scc(C)c23)C1` [Example 212, N-[(3S)-1-{5-methylthieno[2,3-d]pyrimidin-4-yl}pyrrolidin-3-yl]acetamide], the EC50 in experiment [1] and in experiment [2] was greater than 10 µM each time.
As to `Cc1csc2ncnc(N3CCCC(C(N)=O)C3)c12` (centres unmarked) [Example 213, 1-{5-methylthieno[2,3-d]pyrimidin-4-yl}piperidine-3-carboxamide], the EC50 in experiment [1] and in experiment [2] was greater than 10 µM throughout.
With `Cc1csc2ncnc(N3CCCC4CCCCC43)c12` (centres unmarked) [Example 222, 1-{5-methylthieno[2,3-d]pyrimidin-4-yl}-decahydroquinoline], the EC50 in experiment [1] and in experiment [2] was greater than 10 µM each time.
Consider `C=CCN(c1ncnc2scc(C)c12)C1CCCCC1` [Example 223, N-cyclohexyl-5-methyl-N-(prop-2-en-1-yl)thieno[2,3-d]pyrimidin-4-amine], for which the EC50 in experiment [1] and in experiment [2] was greater than 10 µM throughout.
For `Cc1csc2ncnc(N(Cc3ccccc3)C(C)C)c12` [Example 225, N-benzyl-5-methyl-N-(propan-2-yl)thieno[2,3-d]pyrimidin-4-amine], the EC50 in experiment [1] and in experiment [2] was greater than 10 µM throughout.
Consider `Cc1csc2ncnc(N(C)CC(O)c3ccccc3)c12` (centres unmarked) [Example 227, 2-[methyl({5-methylthieno[2,3-d]pyrimidin-4-yl})amino]-1-phenylethan-1-ol], for which the EC50 in experiment [1] and in experiment [2] was greater than 10 µM each time.
As to `Cc1csc2ncnc(N3CCC(O)(O)CC3)c12` [Example 228, 1-{5-methylthieno[2,3-d]pyrimidin-4-yl}piperidine-4,4-diol], the EC50 in experiment [1] and in experiment [2] was greater than 10 µM each time.
In the case of `CCOC(=O)N1CCN(c2ncnc3scc(C)c23)CC1` [Example 230], the EC50 in experiment [1] and in experiment [2] was greater than 10 µM throughout.
